Here are results for 42 compounds from patent US10364226B2, “Pyridazinone compounds and uses thereof” (priority 2013, dated 2019).

pEC50, pIC50: −log10 of the molar value. Some results are limits rather than exact numbers.

The test system of assay [1] is Influenza strain A549 A/WSN/33 (H1N1). Put plainly: Influenza Antiviral Assay. Type of assay: cell-based, Influenza A virus. The note with it: Influenza A virus, A549, 20 h, neuraminidase fluorescence readout, read-out: % Inhibition.
The next assay addresses EN PA (Influenza A virus, UniProt P15659). Nature of the assay: EN PA FRET Inhibition Assay. Type of assay: biochemical. The note with it: read-out: Potency.

As to `O=C(NC1CCCCC1)c1nn(CC2(c3cccc(C(F)(F)F)c3)CCCC2)cc(O)c1=O` [Compound 516], in assay [1], the pEC50 is above 4.70. In addition, the pIC50 at EN PA is 6.00 to 7.00.

Consider `O=C(Nc1ccccc1)c1nn(CC2(c3cccc(C(F)(F)F)c3)CCCC2)cc(O)c1=O` [Compound 517], for which the pEC50 in assay [1] was above 4.70. At EN PA, the pIC50 was 6.00 to 7.00.

`CNC(=O)c1nn(-c2ccccc2-c2ccccc2-c2ccccc2)cc(O)c1=O` [Compound 518]: the pEC50 in assay [1] is above 4.70. In addition, the pIC50 on EN PA is 6.00 to 7.00.

Consider `CNC(=O)c1nn(-c2ccccc2-c2ccccc2C(C)C)cc(O)c1=O` [Compound 519], for which, in assay [1], the pEC50 was 4.00 to 4.70. In addition, on EN PA, the pIC50 is 6.00 to 7.00.

For the compound `O=C(NCc1ccc(Cl)cc1)c1nn(CC2(c3cccc(C(F)(F)F)c3)CCCC2)cc(O)c1=O` [Compound 523], the pEC50 in assay [1] was above 4.70. Also, the pIC50 at EN PA is 6.00 to 7.00.

Take `Cc1ccc(CNC(=O)c2nn(CC3(c4cccc(C(F)(F)F)c4)CCCC3)cc(O)c2=O)cc1` [Compound 524]: the pEC50 in assay [1] is above 4.70. The pIC50 at EN PA was 6.00 to 7.00.

As to `COc1ccc(CNC(=O)c2nn(CC3(c4cccc(C(F)(F)F)c4)CCCC3)cc(O)c2=O)cc1` [Compound 525], in assay [1], the pEC50 is above 4.70. For the same compound, the pIC50 at EN PA is 6.00 to 7.00.

Regarding `NC(=O)c1nn(CC2(c3cccc(C(F)(F)F)c3)CCCC2)cc(O)c1=O` [Compound 602], the pEC50 in assay [1] was above 4.70. Moreover, the pIC50 on EN PA was 6.00 to 7.00.

For `CNC(=O)c1nn(-c2ccccc2S(=O)(=O)c2ccccc2)cc(O)c1=O` [Compound 603], the pEC50 in assay [1] was below 4.00. The pIC50 on EN PA was at most 6.00.

Take `CNC(=O)c1nn(CCc2ccccc2OC)cc(O)c1=O` [Compound 604]: the pEC50 in assay [1] is below 4.00. Further, the pIC50 on EN PA was at most 6.00.

Regarding `O=C(NCc1ccccc1)c1nn(-c2ccccc2S(=O)(=O)c2ccccc2)cc(O)c1=O` [Compound 605], the pEC50 in assay [1] was 4.00 to 4.70. In addition, the pIC50 at EN PA was 6.00 to 7.00.

With `CNC(=O)c1nn(CCC2CCCCC2)cc(O)c1=O` [Compound 606], in assay [1], the pEC50 is 4.00 to 4.70. Further, the pIC50 on EN PA was at most 6.00.

As to `CNC(=O)c1nn(CC(C)(C)c2ccc(C)cc2)cc(O)c1=O` [Compound 607], in assay [1], the pEC50 was above 4.70. Also, the pIC50 at EN PA is 6.00 to 7.00.

On to `CNC(=O)c1nn(CC2(n3ccc4cccnc43)CCCC2)cc(O)c1=O` [Compound 609], for which the pEC50 in assay [1] is above 4.70. Further, the pIC50 on EN PA is above 7.00.

`CNC(=O)c1nn(-c2ccccc2-c2ccccc2OC2CCCC2)cc(O)c1=O` [Compound 610]: the pEC50 in assay [1] was 4.00 to 4.70. Besides, at EN PA, the pIC50 was 6.00 to 7.00.

On to `CNC(=O)c1nn(-c2ccccc2-c2cccc(OC)c2)cc(O)c1=O` [Compound 611], for which the pEC50 in assay [1] was below 4.00. Moreover, the pIC50 at EN PA is at most 6.00.

On to `CNC(=O)c1nn(-c2ccccc2-c2cc(OC)ccc2Cl)cc(O)c1=O` [Compound 612], for which the pEC50 in assay [1] is 4.00 to 4.70. Besides, on EN PA, the pIC50 is at most 6.00.

For `CNC(=O)c1nn(-c2ccccc2-c2ccc3[nH]ccc3c2)cc(O)c1=O` [Compound 613], the pEC50 in assay [1] was below 4.00. The pIC50 at EN PA was at most 6.00.

Turning to `CNC(=O)c1nn(CCc2cccc3ccccc23)cc(O)c1=O` [Compound 614], the pEC50 in assay [1] was 4.00 to 4.70. The pIC50 on EN PA was 6.00 to 7.00.

As for `CNC(=O)c1nn(CC2(c3cccc(C(F)(F)F)c3)CC2)cc(O)c1=O` [Compound 621], the pEC50 in assay [1] is above 4.70. At EN PA, the pIC50 was 6.00 to 7.00.

Turning to `CNC(=O)c1nn(CC2(n3cc(C)c4cccnc43)CCCC2)cc(O)c1=O` [Compound 622], the pEC50 in assay [1] was above 4.70. Moreover, the pIC50 at EN PA is 6.00 to 7.00.

For `COc1cccc(CNC(=O)c2nn(CC3(c4cccc(C(F)(F)F)c4)CCCC3)cc(O)c2=O)c1` [Compound 624], the pEC50 in assay [1] is above 4.70. Further, at EN PA, the pIC50 was 6.00 to 7.00.

Regarding `O=C(NCc1ccc2c(c1)OCO2)c1nn(CC2(c3cccc(C(F)(F)F)c3)CCCC2)cc(O)c1=O` [Compound 625], the pEC50 in assay [1] is above 4.70. Besides, the pIC50 on EN PA was 6.00 to 7.00.

As for `NC(=O)c1nn(CC2(c3cccc(C(F)(F)F)c3)CC2)cc(O)c1=O` [Compound 626], in assay [1], the pEC50 was 4.00 to 4.70. At EN PA, the pIC50 is 6.00 to 7.00.

In the case of `O=C(Nc1ccccc1)c1nn(CC2(c3ccccc3)CCCC2)cc(O)c1=O` [Compound 639], the pEC50 in assay [1] was 4.00 to 4.70. Also, the pIC50 on EN PA is 6.00 to 7.00.

In the case of `CNC(=O)c1nn(-c2ccccc2S(=O)(=O)c2cccc(Cl)c2)cc(O)c1=O` [Compound 644], the pEC50 in assay [1] is below 4.00. Moreover, the pIC50 on EN PA is 6.00 to 7.00.

Consider `CNC(=O)c1nn(CC(C)(C)c2cccc(C(F)(F)F)c2)cc(O)c1=O` [Compound 645], for which, in assay [1], the pEC50 was above 4.70. The pIC50 at EN PA was above 7.00.

For the compound `Cn1cc(CNC(=O)c2nn(CC3(c4cccc(C(F)(F)F)c4)CCCC3)cc(O)c2=O)cn1` [Compound 646], the pEC50 in assay [1] was above 4.70. At EN PA, the pIC50 is above 7.00.

Consider `Cc1cc(CNC(=O)c2nn(CC3(c4cccc(C(F)(F)F)c4)CCCC3)cc(O)c2=O)[nH]n1` [Compound 648], for which the pEC50 in assay [1] is above 4.70. The pIC50 at EN PA is above 7.00.

Regarding `O=C(NCc1cnn(-c2ccc(F)cc2)c1)c1nn(CC2(c3cccc(C(F)(F)F)c3)CCCC2)cc(O)c1=O` [Compound 649], the pEC50 in assay [1] was above 4.70. For the same compound, at EN PA, the pIC50 was above 7.00.

Take `CCn1cc(CNC(=O)c2nn(CC3(c4cccc(C(F)(F)F)c4)CCCC3)cc(O)c2=O)cn1` [Compound 650]: in assay [1], the pEC50 is above 4.70. The pIC50 at EN PA was above 7.00.

On to `CNC(=O)c1nn(Cc2ccccc2-c2ccccc2)cc(O)c1=O` [Compound 654], for which the pEC50 in assay [1] was below 4.00. Further, at EN PA, the pIC50 is 6.00 to 7.00.

In the case of `Cc1ccc(C2(Cn3cc(O)c(=O)c(C(=O)O)n3)CC2)cc1` [Compound 655], in assay [1], the pEC50 was below 4.00. Besides, on EN PA, the pIC50 was above 7.00.

As for `CNC(=O)c1nn(CC2(c3ccc(C)cc3)CC2)cc(O)c1=O` [Compound 656], the pEC50 in assay [1] is below 4.00. The pIC50 at EN PA is 6.00 to 7.00.

Regarding `CNC(=O)c1nn(CC(c2ccccc2)C2CCCC2)cc(O)c1=O` (stereo not drawn) [Compound 658], the pEC50 in assay [1] is below 4.00. In addition, the pIC50 at EN PA was 6.00 to 7.00.

On to `CNC(=O)c1nn(CC(c2ccccc2)C2CCCCC2)cc(O)c1=O` (stereo not drawn) [Compound 659], for which the pEC50 in assay [1] was below 4.00. The pIC50 at EN PA is 6.00 to 7.00.

Regarding `CNC(=O)c1nn(CC(c2ccccc2)c2ccccc2)cc(O)c1=O` [Compound 660], in assay [1], the pEC50 is below 4.00. The pIC50 on EN PA was 6.00 to 7.00.

On to `Cc1cn(C2(Cn3cc(O)c(=O)c(C(=O)NC4CC4)n3)CCCC2)c2ncccc12` [Compound 661], for which the pEC50 in assay [1] is above 4.70. Moreover, the pIC50 at EN PA was above 7.00.

For `CNC(=O)c1nn(CC2(n3cc(C)c4cccnc43)CCCC2)cc(OC(C)=O)c1=O` [Compound 662], the pEC50 in assay [1] is above 4.70. In addition, at EN PA, the pIC50 is above 7.00.

For `Cc1csc(CNC(=O)c2nn(CC3(c4cccc(C(F)(F)F)c4)CCCC3)cc(O)c2=O)c1` [Compound 663], the pEC50 in assay [1] is below 4.00. On EN PA, the pIC50 was 6.00 to 7.00.

For the compound `O=C(NCc1cccnc1)c1nn(CC2(c3ccccc3)CCCC2)cc(O)c1=O` [Compound 664], the pEC50 in assay [1] is below 4.00. Further, the pIC50 on EN PA was 6.00 to 7.00.

Consider `CNC(=O)c1nn(CC2(c3cccc(C(C)C)c3)CCCC2)cc(O)c1=O` [Compound 665], for which the pEC50 in assay [1] is above 4.70. Moreover, the pIC50 at EN PA was above 7.00.
